Experiment [1] concerns the target Adenylate cyclase. Briefly: Inhibitory activity against Dopamine sensitive adenylate cyclase in rats.
The subject of experiment [2] is Rattus norvegicus. Briefly: Effective Dose for catalepsy production in naive rats when administered intraperitoneal. It is filed as functional. Conditions: ip.
In experiment [3] the target is Adenylate cyclase. Put plainly: Inhibitory concentration against Dopamine sensitive adenylate cyclase in rats. The experiment is classed as functional.
The test system of experiment [4] is Rattus norvegicus. Briefly: Effective Dose for avoidance acquisition in naive rats when administered intraperitoneal. It is filed as functional. Conditions: ip.
The test system of experiment [5] is Canis lupus familiaris. Put plainly: % Change in renal vascular resistance in dogs when administered at dose 3 ug/kg intravenously.
Experiment [6] deals with Canis lupus familiaris. Briefly: % Change in renal vascular resistance in dogs when administered at dose 15 ug/kg intravenously.

This note sets out measurements from ChEMBL document CHEMBL1121514, “6-(Phenylthio)-substituted 2,3,4,5-tetrahydro-1H-3-benzazepines, a novel class of dopamine receptor antagonists and neuroleptics” (J Med Chem, 1980).

As to `CN(C)CCCN1c2ccccc2Sc2ccc(Cl)cc21` [CHLORPROMAZINE], the Ki in experiment [1] was 0.118 µM. The ED50 in experiment [2] was 4.2 mg/kg; in experiment [4] it was 1.5 mg/kg. The IC50 in experiment [3] was 1.3 µM.
In the case of H-RPPGFSPFR-OH [BRADYKININ], the Change in experiment [5] was -19%; in experiment [6], -37%.
In experiment [1], `Br.CN1CCc2cc(O)c(O)c(Sc3ccccc3)c2CC1` returned a Ki of 0.022 µM. Besides, the ED50 was found to be 5.6 mg/kg in experiment [2] and 0.5 mg/kg in experiment [4]. Moreover, the IC50 in experiment [3] turned out to be 0.24 µM.
Turning to `NCCc1ccc(O)c(O)c1` [DOPAMINE], the Change in experiment [5] is 8%.
Turning to `Br.Oc1cc2c(c(Sc3ccccc3)c1O)CCNCC2`, the Ki in experiment [1] is 0.25 µM. Further, the ED50 in experiment [2] is 64.6 mg/kg; in experiment [4], 4.9 mg/kg. The same compound registered a 50% inhibitory concentration (IC50) in experiment [3] of 2.7 µM.
In experiment [1], `CN1CCc2c(Cl)c(O)c(O)c(Sc3ccccc3)c2CC1` gave a Ki of 0.033 µM. For the same compound, the figures for the ED50 in experiment [2] and in experiment [4] were 3 mg/kg and 0.08 mg/kg, respectively. The compound further returned an IC50 in experiment [3] of 0.36 µM.

As a reminder, the Ki is a measure of affinity in units of concentration, obtained from inhibition or displacement. Lower therefore signals tighter binding. As a reminder, the ED50 is the dose at which the effect has come halfway, by size or by number of responders. A higher ED50 goes with weaker potency. In general, IC50 refers to the concentration needed to halve the response being measured.
